The target of one assay is T1, human CTPS1 (Homo sapiens, UniProt P17812).
T1 construct: FLAG (GG linker + DYKDDDDK); His8 (GG linker + HHHHHHHH); purchased Proteros biostructures GmbH
T1 sequence (P17812 1-591): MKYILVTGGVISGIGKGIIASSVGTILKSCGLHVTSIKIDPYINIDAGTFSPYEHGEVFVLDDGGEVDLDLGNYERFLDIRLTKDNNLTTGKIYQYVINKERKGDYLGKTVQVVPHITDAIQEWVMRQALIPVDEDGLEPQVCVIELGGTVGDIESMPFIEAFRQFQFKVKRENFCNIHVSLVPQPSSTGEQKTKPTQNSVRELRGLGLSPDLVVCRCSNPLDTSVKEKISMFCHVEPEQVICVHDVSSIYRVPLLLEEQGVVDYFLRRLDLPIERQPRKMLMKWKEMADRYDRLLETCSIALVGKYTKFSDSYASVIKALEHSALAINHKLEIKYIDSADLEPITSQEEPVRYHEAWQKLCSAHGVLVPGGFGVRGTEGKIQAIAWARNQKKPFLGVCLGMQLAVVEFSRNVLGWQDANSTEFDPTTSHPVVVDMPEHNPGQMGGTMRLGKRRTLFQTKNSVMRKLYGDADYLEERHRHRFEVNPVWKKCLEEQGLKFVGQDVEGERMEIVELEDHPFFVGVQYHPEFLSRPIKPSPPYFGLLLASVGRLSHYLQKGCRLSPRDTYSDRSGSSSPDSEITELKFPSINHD
Kind of assay: Human CTPS1 enzyme inhibition (ADP-Glo Max assay). It is filed as biochemical. Particulars: 25° C., read-out: Human CTPS1 Enzyme Inhibition IC50, grouped by potency range. The procedure:
The enzyme inhibitory activities of compounds invented against the target of interest were determined using the ADP-Glo™ Max assay (Promega, UK). Assays for human CTPS1 were performed in 1× assay buffer containing 50 mM Tris, 10 mM MgCl2, 0.01% Tween-20, pH to 8.0 accordingly. Finally, immediately before use, L-cysteine was added to the 1× assay buffer to a final concentration of 2 mM. All reagents are from Sigma-Aldrich unless specified otherwise.
Human full length active C-terminal FLAG-Hiss-tag CTPS1 (UniProtKB—P17812, CTPS1[1-591]-[…] (CTPS1[1-591]-SEQ ID NO: 1)) was obtained from Proteros biostructures GmbH.
3× human CTPS1 protein was prepared in 1× assay buffer to the final working protein concentration required for the reaction. A 2 uL volume per well of 3× human CTPS1 protein was mixed with 2 uL per well of 3× test compound (compound prepared in 1× assay buffer to an appropriate final 3× compound concentration respective to the concentration response curve designed for the compounds under test) for 10 minutes at 25° C. The enzymatic reaction was then initiated by addition of a 2 uL per well volume of a pre-mixed substrate mix (UltraPure ATP from ADP-GIo™ Max kit (0.31 mM), GTP (0.034 mM), UTP (0.48 mM) and L-glutamine (0.186 mM)) and the mixture was incubated for an appropriate amount of time within the determined linear phase of the reaction at 25° C. under sealed plate conditions with constant agitation at 500 revolutions per minute (rpm). ADP-GIo™ Max reagent was added for 60 minutes (6 μL per well) and subsequently ADP-GIo™ Max development reagent was added for 60 minutes (12 uL per well) prior to signal detection in a microplate reader (EnVision® Multilabel Reader, Perkin Elmer). Following each reagent addition over the course of the assay, assay plates were pulse centrifuged for 30 seconds at 500 rpm.
In all cases, the enzyme converts ATP to ADP and the ADP-Glo™ Max reagent subsequently depletes any remaining endogenous ATP in the reaction system. The ADP-Glo™ Max detection reagent converts the ADP that has been enzymatically produced back into ATP and using ATP as a substrate together with luciferin for the enzyme luciferase, light is generated which produces a detectable luminescence. […] The percentage inhibition produced by each concentration of compound was calculated using the equation shown below: […]
(§1) Percentage inhibition was then plotted against compound concentration, and the 50% inhibitory concentration (IC50) was determined from the resultant concentration-response curve.

Another assay deals with Human CTPS1 Versus CTPS2. Kind of assay: RapidFire/MS-based enzyme selectivity assay, human CTPS1 versus CTPS2. The format is biochemical. Particulars: RapidFire/MS IC50s. The procedure:
Human CTPS1 Versus CTPS2 Selectivity Assessment by RapidFire/MS Analysis.
The enzyme inhibitory activities against each target isoform of interest may be determined for the compounds of the invention using an optimised RapidFire high-throughput mass spectrometry (RF/MS) assay format. RF/MS assays for both human CTPS1 and CTPS2 may be performed in assay buffer consisting of 50 mM HEPES (Merck), 20 mM MgCl2, 5 mM KCl, 1 mM DTT, 0.01% Tween-20, pH to 8.0 accordingly. Human full-length active C-terminal FLAG-His-tag CTPS1 (UniProtKB—P17812, CTPS1[1-591]-[…] (CTPS1[1-591]-SEQ ID NO: 1)) may be obtained from Proteros biostructures GmbH. Human full length active C-terminal FLAG-His-Avi tagged CTPS2 (UniProtKB—Q9NRF8, CTPS2 [1-586]—[…] (CTPS2 [1-586]-SEQ ID NO: 2)) may be obtained from Harker Bio.
Human CTPS (1 or 2) protein may be prepared in 1× assay buffer to the final working protein concentration required for the reaction. A 2 uL volume per well of 2×CTPS (1 or 2) protein may be mixed with 40 nL of compound using acoustic (ECHO) delivery and incubated for 10 minutes at 25° C. Each isoform enzymatic reaction may be subsequently initiated by addition of 2 uL per well of a 2× substrate mix in assay buffer. For hCTPS1: ATP (0.3 mM), UTP (0.2 mM), GTP (0.07 mM) and L-glutamine (0.1 mM). For hCTPS2: ATP (0.1 mM), UTP (0.04 mM), GTP (0.03 mM) and L-glutamine (0.1 mM). Each mixture may be incubated for an appropriate amount of time per isoform within the determined linear phase of the reaction at 25° C. A 60 uL volume of stop solution (1% formic acid with 0.5 uM ^13C9-^15N3-CTP in H2O) may be added and the plate immediately heat-sealed and centrifuged for 10 minutes at 4,000 rpm. Following centrifugation, plates may be loaded onto the Agilent RapidFire microfluidic solid phase extraction system coupled to an API4000 triple quadrupole mass spectrometer (RF/MS) for analysis.
In all cases, the enzyme converts UTP to CTP. Highly specific and sensitive multiple reaction monitoring (MRM) MS methods may be optimised for the detection of the enzymatic reaction product, CTP, and the stable isotope labelled product standard ^13C-^15N-CTP. Readout for data analysis may be calculated as the ratio between the peak area of the product CTP and the internal standard […]. For data reporting, the following equation may be used: […]
For each screening plate, the means of the negative (DMSO) and positive control values were used for the calculation of the respective assay window (S/B) and Z′ values. The median of the respective control values was used for calculation of percent inhibition according to the following equation: […]
as §1
Fold selectivity between CTPS1 and CTPS2 was subsequently calculated according to the following equation: […]

Where only a bound is given, the exact number is not on record here.

From US12466810B2, “N-(5-(6-ethoxypyrazin-2-yl)pyridin-2-yl)-4-(2-(methylsulfonamido)pyrimidin-4-yl) tetrahydro-2H-pyran-4-carboxamide derivatives and related compounds as human CTPS1 inhibitors for the treatment of proliferative diseases” (Step Pharma S.A.S., priority 2019, dated 2025) come the findings set out here.

Consider `CCOc1cncc(-c2ccc(NC(=O)C3(c4ccnc(NS(=O)(=O)C5CCCC5)n4)CCOCC3)nc2)n1` [P245, 4-(2-(cyclopentanesulfonamido)pyrimidin-4-yl)-N-(5-(6-ethoxypyrazin-2-yl)pyridin-2-yl)tetrahydro-2H-pyran-4-carboxamide], for which the IC50 on human CTPS1 fell in the range of 100 to 1000 nM. The “Fold selectivity between CTPS1 and CTPS2 (CTPS1)” value with Human CTPS1 Versus CTPS2 was “+++ (>60 fold (+++))”. Regarding `CCOc1cncc(-c2ccc(NC(=O)C3(c4ccnc(NS(=O)(=O)C5CC5)n4)CCOCC3)c(C)c2)n1` [P240, 4-(2-(cyclopropanesulfonamido)pyrimidin-4-yl)-N-(4-(6-ethoxypyrazin-2-yl)-2-methylphenyl)tetrahydro-2H-pyran-4-carboxamide], the IC50 on human CTPS1 was at most 100 nM. The “Fold selectivity between CTPS1 and CTPS2 (CTPS1)” value in the assay on Human CTPS1 Versus CTPS2 is reported as “+ (2-30 fold (+))”. As to `CCOc1cncc(-c2ccc(NC(=O)C3(c4ccnc(NS(=O)(=O)C5CC5)n4)CCN(C(C)=O)CC3)nc2)n1` [P234, 1-Acetyl-4-(2-(cyclopropanesulfonamido)pyrimidin-4-yl)-N-(5-(6-ethoxypyrazin-2-yl)pyridin-2-yl)piperidine-4-carboxamide], at human CTPS1, the half-inhibitory concentration (IC50) is at most 100 nM. In addition, in the assay on Human CTPS1 Versus CTPS2, the “Fold selectivity between CTPS1 and CTPS2 (CTPS1)” value is on record as “+++ (>60 fold (+++))”.

With `CCOc1cncc(-c2ccc(NC(=O)C3(c4ccnc(NS(=O)(=O)C5CC5)n4)CCCCC3)nc2)n1` [P237, 1-(2-(cyclopropanesulfonamido)pyrimidin-4-yl)-N-(5-(6-ethoxypyrazin-2-yl)pyridin-2-yl)cyclohexane-1-carboxamide], the concentration for half-maximal inhibition (IC50) at human CTPS1 was at most 100 nM. The “Fold selectivity between CTPS1 and CTPS2 (CTPS1)” value with Human CTPS1 Versus CTPS2 was “+++ (>60 fold (+++))”.

For `CCOc1cncc(-c2ccc(NC(=O)C3(c4ccnc(NS(=O)(=O)C5CC5)n4)CCC3)nc2)n1` [P241, 1-(2-(cyclopropanesulfonamido)pyrimidin-4-yl)-N-(5-(6-ethoxypyrazin-2-yl)pyridin-2-yl)cyclobutane-1-carboxamide], the half-inhibitory concentration (IC50) at human CTPS1 was at most 100 nM. In addition, the “Fold selectivity between CTPS1 and CTPS2 (CTPS1)” value in the assay with Human CTPS1 Versus CTPS2 is recorded as “+++ (>60 fold (+++))”.

In the case of `CCOc1cncc(-c2ccc(NC(=O)C3(c4ccnc(NS(=O)(=O)C5(C)CC5)n4)CCOCC3)nc2)n1` [P247, N-(5-(6-ethoxypyrazin-2-yl)pyridin-2-yl)-4-(2-((1-methylcyclopropane)-1-sulfonamido)pyrimidin-4-yl)tetrahydro-2H-pyran-4-carboxamide], at human CTPS1, the IC50 was 100 to 1000 nM. Moreover, the “Fold selectivity between CTPS1 and CTPS2 (CTPS1)” value with Human CTPS1 Versus CTPS2 is “+++ (>60 fold (+++))”. The corresponding values for `O=C(Nc1ccc(-c2cncc(C3CC3)n2)cn1)C1(c2ccnc(NS(=O)(=O)C3CC3)n2)CCOCC1` [P252, 4-(2-(cyclopropanesulfonamido)pyrimidin-4-yl)-N-(5-(6-cyclopropylpyrazin-2-yl)pyridin-2-yl)tetrahydro-2H-pyran-4-carboxamide] are at most 100 nM and “+++ (>60 fold (+++))”. With `CCOc1cncc(-c2ccc(NC(=O)C3(c4ccnc(NS(=O)(=O)C5CC5)n4)CCS(=O)(=O)CC3)nc2)n1` [P259, 4-(2-(cyclopropanesulfonamido)pyrimidin-4-yl)-N-(5-(6-ethoxypyrazin-2-yl)pyridin-2-yl)tetrahydro-2H-thiopyran-4-carboxamide 1,1-dioxide], the half-maximal inhibitory concentration (IC50) on human CTPS1 was at most 100 nM. `CCOc1cncc(-c2ccc(NC(=O)C3(c4cncc(NS(=O)(=O)C5CC5)n4)CCCCC3)nc2)n1` [P239, 1-(6-(cyclopropanesulfonamido)pyrazin-2-yl)-N-(5-(6-ethoxypyrazin-2-yl)pyridin-2-yl)cyclohexane-1-carboxamide]: the half-maximal inhibitory concentration (IC50) on human CTPS1 is at most 100 nM. In addition, the “Fold selectivity between CTPS1 and CTPS2 (CTPS1)” value in the assay with Human CTPS1 Versus CTPS2 is listed as “+++ (>60 fold (+++))”. In the case of `CCOc1cncc(-c2ccc(NC(=O)C3(c4ccnc(NS(C)(=O)=O)n4)CCOCC3)nc2)n1` [P236, N-(5-(6-ethoxypyrazin-2-yl)pyridin-2-yl)-4-(2-(methylsulfonamido)pyrimidin-4-yl)tetrahydro-2H-pyran-4-carboxamide], the IC50 at human CTPS1 is at most 100 nM. For the same compound, the “Fold selectivity between CTPS1 and CTPS2 (CTPS1)” value with Human CTPS1 Versus CTPS2 is on record as “+++ (>60 fold (+++))”. `CCOc1cncc(-c2ccc(NC(=O)C3(c4ccnc(NS(=O)(=O)C(C)(C)C)n4)CCOCC3)nc2)n1` [P246, 4-(2-((1,1-dimethylethyl)sulfonamido)pyrimidin-4-yl)-N-(5-(6-ethoxypyrazin-2-yl)pyridin-2-yl)tetrahydro-2H-pyran-4-carboxamide]: the IC50 on human CTPS1 lay within 100 to 1000 nM. Besides, in the assay with Human CTPS1 Versus CTPS2, the “Fold selectivity between CTPS1 and CTPS2 (CTPS1)” value is reported as “+++ (>60 fold (+++))”. On to `CCOc1cncc(-c2ccc(NC(=O)C3(c4ccnc(NS(=O)(=O)CC5CC5)n4)CCOCC3)nc2)n1` [P263, 4-(2-(cyclopropylmethylsulfonamido)pyrimidin-4-yl)-N-(5-(6-ethoxypyrazin-2-yl)pyridin-2-yl)tetrahydro-2H-pyran-4-carboxamide], for which, on human CTPS1, the IC50 was 100 to 1000 nM. Consider `CCOc1cncc(-c2ccc(C(=O)NC3(c4ccnc(NS(=O)(=O)C5CC5)n4)CC3)nc2)n1` [P257, N-(1-(2-(cyclopropanesulfonamido)pyrimidin-4-yl)cyclopropyl)-5-(6-ethoxypyrazin-2-yl)picolinamide], for which the concentration for half-maximal inhibition (IC50) at human CTPS1 lay within 100 to 1000 nM. The same measure, in the same setting: next, `CCOc1cncc(-c2ccc(NC(=O)C3(c4ccnc(NS(=O)(=O)CC)n4)CCOCC3)nc2)n1` [P262, N-(5-(6-ethoxypyrazin-2-yl)pyridin-2-yl)-4-(2-(ethylsulfonamido)pyrimidin-4-yl)tetrahydro-2H-pyran-4-carboxamide]: at most 100 nM.

One may read the IC50 as the concentration that gives 50% inhibition.
